Laboratory results: the supplement of paper PMC10307832

Legend:
Test in all cases: relative viability (nuclei count vs DMSO), 5 days (fraction); higher = more cells survive
H3255 = system: H3255
How it was run: (§1)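 Relative viability is defined as nuclei in treated wells over nuclei in vehicle wells. Duplicate plates were run and medians reported. Lung cancer cell lines in 1536-well plates were dosed by pin tool one day after seeding, with one drug or with a fixed anchor-drug dose plus five library-drug doses (not always all listed) in √10 steps, and nuclei were counted after 5 days.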

SW 1573 = system: SW 1573
How it was run: as §1

NCI-H1437 = system: NCI-H1437
How it was run: as §1

LU99A = system: LU99A
How it was run: as §1

201T = system: 201T
How it was run: as §1

LCLC-97TM1 = system: LCLC-97TM1
How it was run: as §1

PC-3 [JPC-3] = system: PC-3 [JPC-3]
How it was run: as §1

NCI-H647 = system: NCI-H647
How it was run: as §1

EPLC-272H = system: EPLC-272H
How it was run: as §1

NCI-H2087 = system: NCI-H2087
How it was run: as §1

NCI-H2342 = system: NCI-H2342
How it was run: as §1

NCI-H358 = system: NCI-H358
How it was run: as §1

HOP-62 = system: HOP-62
How it was run: as §1

HCC-827 = system: HCC-827
How it was run: as §1

NCI-H1666 = system: NCI-H1666
How it was run: as §1

BEN = system: BEN
How it was run: as §1

COR-L 105 = system: COR-L 105
How it was run: as §1

NCI-H1395 = system: NCI-H1395
How it was run: as §1

LOU-NH91 = system: LOU-NH91
How it was run: as §1

EKVX = system: EKVX
How it was run: as §1

NCI-H2085 = system: NCI-H2085
How it was run: as §1

NCI-H1975 = system: NCI-H1975
How it was run: as §1

Compound: C=C1C(=O)O[C@@H](CCCCCCCC)[C@@H]1C(=O)O [C-75] + COc1cc2c(Oc3ccc(NC(=O)C4(C(=O)Nc5ccc(F)cc5)CC4)cc3F)ccnc2cc1OCCCN1CCOCC1 [Foretinib] (partner 0.25 µM)
- relative viability (H3255; first compound 0.08 µM): 0.837
- relative viability (H3255; first compound 0.253 µM): 0.927
- relative viability (H3255; first compound 0.8 µM): 0.73
- relative viability (H3255; first compound 2.53 µM): 0.736
- relative viability (H3255; first compound 8 µM): 0.983
- relative viability (SW 1573; first compound 0.08 µM): 1.03
- relative viability (SW 1573; first compound 0.253 µM): 0.943
- relative viability (SW 1573; first compound 0.8 µM): 0.951
- relative viability (SW 1573; first compound 2.53 µM): 0.74
- relative viability (SW 1573; first compound 8 µM): 0.731
- relative viability (NCI-H1437; first compound 0.08 µM): 1.27
- relative viability (NCI-H1437; first compound 0.253 µM): 1.45
- relative viability (NCI-H1437; first compound 0.8 µM): 1.28
- relative viability (NCI-H1437; first compound 2.53 µM): 1.13
- relative viability (NCI-H1437; first compound 8 µM): 1.23
- relative viability (LU99A; first compound 0.08 µM): 0.809
- relative viability (LU99A; first compound 0.253 µM): 0.71
- relative viability (LU99A; first compound 0.8 µM): 0.831
- relative viability (LU99A; first compound 2.53 µM): 0.783
- relative viability (LU99A; first compound 8 µM): 0.63
- relative viability (201T; first compound 0.08 µM): 1.08
- relative viability (201T; first compound 0.253 µM): 1.24
- relative viability (201T; first compound 0.8 µM): 1.08
- relative viability (201T; first compound 2.53 µM): 0.64
- relative viability (201T; first compound 8 µM): 1.03
- relative viability (LCLC-97TM1; first compound 0.08 µM): 0.934
- relative viability (LCLC-97TM1; first compound 0.253 µM): 1.01
- relative viability (LCLC-97TM1; first compound 0.8 µM): 0.951
- relative viability (LCLC-97TM1; first compound 2.53 µM): 0.847
- relative viability (LCLC-97TM1; first compound 8 µM): 0.926
- relative viability (PC-3 [JPC-3]; first compound 0.08 µM): 1.05
- relative viability (PC-3 [JPC-3]; first compound 0.253 µM): 1.02
- relative viability (PC-3 [JPC-3]; first compound 0.8 µM): 1.06
- relative viability (PC-3 [JPC-3]; first compound 2.53 µM): 1.06
- relative viability (PC-3 [JPC-3]; first compound 8 µM): 1.2
- relative viability (NCI-H647; first compound 0.08 µM): 1.23
- relative viability (NCI-H647; first compound 0.253 µM): 1.12
- relative viability (NCI-H647; first compound 0.8 µM): 0.998
- relative viability (NCI-H647; first compound 2.53 µM): 1.18
- relative viability (NCI-H647; first compound 8 µM): 0.97
- relative viability (EPLC-272H; first compound 0.08 µM): 0.686
- relative viability (EPLC-272H; first compound 0.253 µM): 0.936
- relative viability (EPLC-272H; first compound 0.8 µM): 0.554
- relative viability (EPLC-272H; first compound 2.53 µM): 0.429
- relative viability (EPLC-272H; first compound 8 µM): 0.386
- relative viability (NCI-H2087; first compound 0.08 µM): 1.15
- relative viability (NCI-H2087; first compound 0.253 µM): 1.07
- relative viability (NCI-H2087; first compound 0.8 µM): 0.943
- relative viability (NCI-H2087; first compound 2.53 µM): 0.725
- relative viability (NCI-H2087; first compound 8 µM): 0.891
- relative viability (NCI-H2342; first compound 0.08 µM): 1.11
- relative viability (NCI-H2342; first compound 0.253 µM): 1.13
- relative viability (NCI-H2342; first compound 0.8 µM): 1.04
- relative viability (NCI-H2342; first compound 2.53 µM): 0.923
- relative viability (NCI-H2342; first compound 8 µM): 1.17
- relative viability (NCI-H358; first compound 0.08 µM): 0.748
- relative viability (NCI-H358; first compound 0.253 µM): 0.623
- relative viability (NCI-H358; first compound 0.8 µM): 0.565
- relative viability (NCI-H358; first compound 2.53 µM): 0.595
- relative viability (NCI-H358; first compound 8 µM): 0.511
- relative viability (HOP-62; first compound 0.08 µM): 1.1
- relative viability (HOP-62; first compound 0.253 µM): 1.06
- relative viability (HOP-62; first compound 0.8 µM): 1.14
- relative viability (HOP-62; first compound 2.53 µM): 0.966
- relative viability (HOP-62; first compound 8 µM): 1.09
- relative viability (HCC-827; first compound 0.08 µM): 1.02
- relative viability (HCC-827; first compound 0.253 µM): 1.05
- relative viability (HCC-827; first compound 0.8 µM): 1.04
- relative viability (HCC-827; first compound 2.53 µM): 0.965
- relative viability (HCC-827; first compound 8 µM): 0.945
- relative viability (NCI-H1666; first compound 0.08 µM): 0.991
- relative viability (NCI-H1666; first compound 0.253 µM): 1.01
- relative viability (NCI-H1666; first compound 0.8 µM): 0.969
- relative viability (NCI-H1666; first compound 2.53 µM): 0.732
- relative viability (NCI-H1666; first compound 8 µM): 0.777
- relative viability (BEN; first compound 0.08 µM): 0.712
- relative viability (BEN; first compound 0.253 µM): 0.671
- relative viability (BEN; first compound 0.8 µM): 0.547
- relative viability (BEN; first compound 8 µM): 0.478
- relative viability (COR-L 105; first compound 0.08 µM): 0.934
- relative viability (COR-L 105; first compound 0.253 µM): 1.17
- relative viability (COR-L 105; first compound 0.8 µM): 1.12
- relative viability (COR-L 105; first compound 2.53 µM): 0.828
- relative viability (COR-L 105; first compound 8 µM): 1
- relative viability (NCI-H1395; first compound 0.08 µM): 0.894
- relative viability (NCI-H1395; first compound 0.253 µM): 1.02
- relative viability (NCI-H1395; first compound 0.8 µM): 0.948
- relative viability (NCI-H1395; first compound 2.53 µM): 1.03
- relative viability (NCI-H1395; first compound 8 µM): 1.13
- relative viability (LOU-NH91; first compound 0.08 µM): 0.938
- relative viability (LOU-NH91; first compound 0.253 µM): 0.873
- relative viability (LOU-NH91; first compound 0.8 µM): 0.903
- relative viability (LOU-NH91; first compound 2.53 µM): 0.914
- relative viability (LOU-NH91; first compound 8 µM): 0.948
- relative viability (EKVX; first compound 0.08 µM): 0.644
- relative viability (EKVX; first compound 0.253 µM): 0.925
- relative viability (EKVX; first compound 0.8 µM): 0.782
- relative viability (EKVX; first compound 8 µM): 1.06
- relative viability (NCI-H2085; first compound 0.08 µM): 0.842
- relative viability (NCI-H2085; first compound 0.253 µM): 0.879
- relative viability (NCI-H2085; first compound 0.8 µM): 0.921
- relative viability (NCI-H2085; first compound 2.53 µM): 0.782
- relative viability (NCI-H2085; first compound 8 µM): 1.14
- relative viability (NCI-H1975; first compound 0.08 µM): 0.917
- relative viability (NCI-H1975; first compound 0.253 µM): 0.834
- relative viability (NCI-H1975; first compound 0.8 µM): 0.974
- relative viability (NCI-H1975; first compound 2.53 µM): 0.785
- relative viability (NCI-H1975; first compound 8 µM): 0.878
